Patent publication US6020327A, “Control of hair growth” (The Central Sheffield University Hospitals NHS Trust, priority 1994, dated 2000)
Read-outs that look alike come from different tables or passages of the source.

How the values were obtained:
[1] = biological target: T1, aromatase (Homo sapiens, UniProt P11511); assay: Aromatase by tritiated water assay in minced scalp skin samples, with and without aromatase inhibitor; assay type: biochemical; design: endogenous in cells; host or cells: cultured human non-follicular skin fibroblast lines (beard, occipital scalp, frontal scalp); conditions: addition of 25 nmol to minced scalp skin samples
T1 sequence (P11511 1-503): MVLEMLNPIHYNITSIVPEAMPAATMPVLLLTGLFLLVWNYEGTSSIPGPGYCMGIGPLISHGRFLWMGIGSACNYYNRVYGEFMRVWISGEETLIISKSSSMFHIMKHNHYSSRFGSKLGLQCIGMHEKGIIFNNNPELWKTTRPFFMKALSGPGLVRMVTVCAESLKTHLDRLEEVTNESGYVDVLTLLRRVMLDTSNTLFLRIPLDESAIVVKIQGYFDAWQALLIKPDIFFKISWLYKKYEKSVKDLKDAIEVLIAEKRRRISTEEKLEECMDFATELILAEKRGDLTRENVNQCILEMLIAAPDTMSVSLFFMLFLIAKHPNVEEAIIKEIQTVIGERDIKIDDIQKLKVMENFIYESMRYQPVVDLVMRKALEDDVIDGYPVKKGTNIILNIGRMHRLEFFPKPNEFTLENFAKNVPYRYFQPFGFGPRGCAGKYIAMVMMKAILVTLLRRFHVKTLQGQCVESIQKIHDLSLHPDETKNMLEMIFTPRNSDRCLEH
Procedure: To determine whether the results obtained using cell culture are representative of events occurring in vivo aromatase was measured by the tritiated water assay in skin samples from male and female scalp. Tissue was minced and then incubated with 1β^3 H-androstenedione together with a source of NADPH. Each assay was done in the presence and absence of an aromatase inhibitor (4OH-androstenedione). Placental tissue was used as a positive control.

[2] = biological target: T1, aromatase; assay: Aromatase activity by tritiated water release assay in cultured skin fibroblasts: substrate kinetics and inhibition
Procedure: (§2) Enzymic kinetic values were established by incubating cells with the substrate (androstenedione) in a range of concentrations.
(§3) Enzyme kinetic values were established by incubating cells with the substrate (androstenedione) in a range of concentrations.

[3] = tested on: aromatase activity in skin fibroblasts; assay: Stimulation of fibroblast aromatase by pre-incubating cultured skin fibroblasts with hormones (tritiated water release assay); assay type: cell-based, human; conditions: for fold induction at 0.01 µM: Homo sapiens, Skin fibroblast
Procedure: (§1) In a preliminary study to investigate the above hypothesis we have measured aromatase activity in cultured human hair follicle dermal papilla cell lines and non-follicular skin fibroblasts from body sites with different responses to androgens. Aromatase was measured using the tritiated water released assay (13). The results are summarised as follows:
Fibroblast aromatase was stimulated by pre-incubating cells with testosterone at physiological concentrations (10 nmol). 19 cell lines were studied. Mean fold increase in aromatase activity (+/- SEM) was 2.69+/-0.38 (p<0.02 paired test). In separate experiments on three cell lines the response to a range of concentrations of testosterone and DHT was studied. Testosterone gave a twofold increase in aromatase maximal at 10 nmol. At the same concentration in response to DHT was over twice as great (4.3 fold).
Fibroblast aromatase was stimulated by pre-incubating the cells with testosterone at a physiological concentration (10 nmol). 19 cell lines were studied. Mean fold increase in aromatase activity (+/- SEM) was 2.69+/-0.38 (p<0.02 paired t test). In separate experiments on three cell lines the response to a range of concentrations of testosterone and DHT was studied. Testosterone gave a 2 fold increase in aromatase maximal at 10 nmol. At the same concentration the response to DHT was over twice as great (4.3 fold).

[4] = tested on: aromatase activity in hair follicle dermal papilla cells; assay: Induction of aromatase in cultured hair follicle dermal papilla cells (tritiated water release assay); assay type: cell-based, human
Procedure: as §1
No aromatase was detected in hair follicle dermal papilla cells cultured through any of the above sites (fourteen cell lines).
No aromatase was detected in hair follicle dermal papilla cells cultured from any of the above sites (14 cell lines).

[5] = tested on: balding; conditions: topical application, humans; cited from earlier work
[6] = tested on: female hair loss; conditions: several small trials, taken orally; cited from earlier work
[7] = substrate: C[C@]12CCC(=O)C=C1CC[C@@H]1[C@@H]2CC[C@]2(C)C(=O)CC[C@@H]12; assay: cells, lysate or membranes; conditions: other: skin fibroblast lines from beard, occipital scalp and frontal scalp; no difference between the three sites
Procedure: as §2, §3

[8] = read-out: Fold increase in aromatase

Molecule: C[C@]12CCC(=O)C(O)=C1CC[C@@H]1[C@@H]2CC[C@]2(C)C(=O)CC[C@@H]12 [4-OH androstenedione]
- Effect on aromatase activity in scalp tissue [1]: reduced activity to background levels
- IC50 [2]: ~25 nM
- Type of inhibition of fibroblast aromatase (kinetic studies) ([2]; three cell lines): irreversible competitive inhibition

Molecule: C[C@]12CCC(=O)C[C@@H]1CC[C@@H]1[C@@H]2CC[C@]2(C)[C@@H](O)CC[C@@H]12 [DHT, dihydrotestosterone]
- fold induction at 0.01 µM [3, 8]: 4.3

Molecule: C[C@@H]1C[C@H]2[C@@H]3CCC4=CC(=O)C=C[C@]4(C)[C@@]3(F)[C@@H](O)C[C@]2(C)[C@@]1(O)C(=O)CO [Dexamethasone]
- Induction of aromatase in dermal papilla cells [4]: induced aromatase
- Stimulation of aromatase in fibroblasts ([3]; skin fibroblasts): 10-20 fold

Molecule: Nc1cc(N2CCCCC2)nc(N)[n+]1[O-] [Minoxidil]
- Subjects with modest recovery in early balding [5]: about 30 % of subjects

Molecule: CC(=O)O[C@]1(C(C)=O)CC[C@H]2[C@@H]3C=C(Cl)C4=CC(=O)[C@@H]5C[C@@H]5[C@]4(C)[C@H]3CC[C@@]21C [cyproterone acetate]
- Effect on the aromatase response to testosterone and DHT ([3]; skin fibroblasts, androgen receptor blockade): inhibited
- Effect in female hair loss [6]: small positive affect

Molecule: C[C@]12CC[C@H]3[C@@H](CCC4=CC(=O)CC[C@@]43C)[C@@H]1CC[C@@H]2O [testosterone]
- Induction of aromatase in dermal papilla cells [4]: failed to induce aromatase
- fold induction at 0.01 µM [3, 8]: 2
- fold induction at 0.01 µM ([3]; read-out: Mean fold increase in aromatase activity (+/- SEM)): 2.69 ± 0.38
- Mean fold increase in aromatase activity (+/- SEM) ([3]; pre-incubation with 10 nmol, 19 fibroblast cell lines, p<0.02): 2.69+/-0.38 fold
- Fold increase in aromatase ([3]; separate experiments on three cell lines, range of concentrations, at 10 nmol (maximal for testosterone)): twofold

B1: aromatase (Homo sapiens) (protein)
chain: MVLEMLNPIHYNITSIVPEAMPAATMPVLLLTGLFLLVWNYEGTSSIPGPGYCMGIGPLISHGRFLWMGIGSACNYYNRVYGEFMRVWISGEETLIISKSSSMFHIMKHNHYSSRFGSKLGLQCIGMHEKGIIFNNNPELWKTTRPFFMKALSGPGLVRMVTVCAESLKTHLDRLEEVTNESGYVDVLTLLRRVMLDTSNTLFLRIPLDESAIVVKIQGYFDAWQALLIKPDIFFKISWLYKKYEKSVKDLKDAIEVLIAEKRRRISTEEKLEECMDFATELILAEKRGDLTRENVNQCILEMLIAAPDTMSVSLFFMLFLIAKHPNVEEAIIKEIQTVIGERDIKIDDIQKLKVMENFIYESMRYQPVVDLVMRKALEDDVIDGYPVKKGTNIILNIGRMHRLEFFPKPNEFTLENFAKNVPYRYFQPFGFGPRGCAGKYIAMVMMKAILVTLLRRFHVKTLQGQCVESIQKIHDLSLHPDETKNMLEMIFTPRNSDRCLEH
- Km [7]: 25 nmol
